# According to patent US8299056B2 (Signal Pharmaceuticals, LLC, priority 2008, dated 2012):
# pIC50: −log10 of the molar value. Where two headings read alike, the source gives them in different places.
# Molecular target: T1, Syk (Homo sapiens, UniProt P43405)
# T1 construct: purchased Carna Biosciences
# Assay: Syk HTRF assay
# Type: biochemical
# Procedure, shortened: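 HTRF kinase assay in HEPES pH 7.6 buffer with MgCl2, DTT and Triton X100; start mix of 87.5 μM ATP and 80 nM biotinylated peptide, 1 h at room temperature. EDTA stop, then Eu-anti-phosphotyrosine/streptavidin-DyLight 647 detection, read as 665/615 nm emission ratio.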
# [1] = read-out: Activity Level (Syk HTRF assay IC50)
# [2] = IC50 activity level, read-out: Activity Level
# [3] = activity levels A-D, read-out: Activity Level (IC50 in the Syk HTRF assay)
SMILES,pIC50 [1],pIC50 [2],pIC50 [3]
"COC[C@]1(O)CC[C@@H](Cc2cccc3nc(Nc4ccc(C(F)(F)F)cc4)nn23)CC1 [Example 187, cis-1-(methoxymethyl)-4-((2-(4-(trifluoromethyl)phenylamino)-[1,2,4]triazolo[1,5-a]pyridin-5-yl)methyl)cyclohexanol]",6.00 to 6.30,–,–
"CNC(=O)c1ccc(Nc2nc3cccc(-c4ccc5nn[nH]c5c4)n3n2)cc1 [Example 432, 4-(5-(1H-benzo[d][1,2,3]triazol-6-yl)-[1,2,4]triazolo[1,5-a]pyridin-2-ylamino)-N-methylbenzamide]",–,6.60 to 11.30,–
"NC(=O)C1CCCN(Cc2cccc3nc(Nc4ccc(C(F)(F)F)cc4)nn23)C1 (centres unmarked) [Example 257, 1-((2-(4-(trifluoromethyl)phenylamino)-[1,2,4]triazolo[1,5-a]pyridin-5-yl)methyl)piperidine-3-carboxamide]",–,–,5.00 to 6.00
"NC(=O)c1ccc(Nc2nc3cccc(NC4CCCNC4)n3n2)cc1 (stereo in doubt) [Example 476, (R)-4-(5-(piperidin-3-ylamino)-[1,2,4]triazolo[1,5-a]pyridin-2-ylamino)benzamide]",–,5.00 to 6.00,–
"OC(c1cccnc1)c1cccc2nc(Nc3ccccc3)nn12 (centres unmarked) [Example 501, (2-(phenylamino)-[1,2,4]triazolo[1,5-a]pyridin-5-yl)(pyridin-3-yl)methanol]",–,6.30 to 6.60,–
"O[C@H]1CC[C@@H](CNc2cccc3nc(Nc4ccc(C(F)(F)F)cc4)nn23)CC1 [Example 382, cis-4-((2-(4-(trifluoromethyl)phenylamino)-[1,2,4]triazolo[1,5-a]pyridin-5-ylamino)methyl)cyclohexanol]",–,–,5.00 to 6.00
"Cc1n[nH]c2ncc(Nc3nc4cccc(N[C@H]5CC[C@@H](O)CC5)n4n3)cc12 [Example 541, cis-4-(2-(3-methyl-1H-pyrazolo[3,4-b]pyridin-5-ylamino)-[1,2,4]triazolo[1,5-a]pyridin-5-ylamino)cyclohexanol]",–,6.60 to 11.30,–
"NCCOc1cc(Nc2nc3cccc(NC4CCCNC4)n3n2)ccn1 (stereo in doubt) [Example 404, (S)-N^2-(2-(2-aminoethoxy)pyridin-4-yl)-N^5-(piperidin-3-yl)-[1,2,4]triazolo[1,5-a]pyridine-2,5-diamine]",–,6.60 to 11.30,–
"COc1ccc(Nc2nc3cccc(N[C@H]4CC[C@@H](O)CC4)n3n2)cn1 [Example 391, cis-4-(2-(6-methoxypyridin-3-ylamino)-[1,2,4]triazolo[1,5-a]pyridin-5-ylamino)cyclohexanol]",–,–,6.00 to 6.30
"Oc1cc(-c2cccc3nc(Nc4ccccc4)nn23)ccn1 [Example 517, 4-(2-(phenylamino)-[1,2,4]triazolo[1,5-a]pyridin-5-yl)pyridin-2-ol]",–,5.00 to 6.00,–
"O[C@H]1CCC[C@H](Nc2cccc3nc(Nc4ccc(C(F)(F)F)cc4)nn23)C1 (racemic) [Example 248, (±)-trans-3-(2-(4-(trifluoromethyl)phenylamino)-[1,2,4]triazolo[1,5-a]pyridin-5-ylamino)cyclohexanol]",–,–,6.60 to 11.30
"Cc1cc(Nc2nc3cccc(N[C@H]4CC[C@@H](O)CC4)n3n2)cc2[nH]ncc12 [Example 204, cis-4-(2-(4-methyl-1H-indazol-6-ylamino)-[1,2,4]triazolo[1,5-a]pyridin-5-ylamino)cyclohexanol]",–,–,6.60 to 11.30
"CN1Cc2cc(Nc3nc4cccc(CC5CCOCC5)n4n3)ccc2C1=O [Example 145, 2-methyl-5-(5-((tetrahydro-2H-pyran-4-yl)methyl)-[1,2,4]triazolo[1,5-a]pyridin-2-ylamino)isoinoldin-1-one]",6.00 to 6.30,–,–
"Cc1cc(Nc2nc3cccc(Cc4ccnc(O)c4)n3n2)ccc1F [Example 219, 4-((2-(4-fluoro-3-methylphenylamino)-[1,2,4]triazolo[1,5-a]pyridin-5-yl)methyl)pyridin-2-ol]",–,–,6.60 to 11.30
"Nc1noc2ccc(-c3cccc4nc(Nc5ccccc5)nn34)cc12 [Example 457, 5-(2-(phenylamino)-[1,2,4]triazolo[1,5-a]pyridin-5-yl)benzo[d]isoxazol-3-amine]",–,6.60 to 11.30,–
"O=C1CN(Cc2cccc3nc(Nc4cnc5[nH]ccc5c4)nn23)CCN1 [Example 229, 4-((2-(1H-pyrrolo[2,3-b]pyridin-5-ylamino)-[1,2,4]triazolo[1,5-a]pyridin-5-yl)methyl)piperazin-2-one]",–,–,6.60 to 11.30
"FC(F)(F)c1ccc(Nc2nc3cccc(OC4CCCNC4)n3n2)cc1 (stereo in doubt) [Example 361, (R)-5-(piperidin-3-yloxy)-N-(4-(trifluoromethyl)phenyl)-[1,2,4]triazolo[1,5-a]pyridin-2-amine]",–,–,5.00 to 6.00
CNC(=O)c1ccc(Nc2nc3cccc(CC4CCNCC4)n3n2)cc1 [Example 276],–,–,6.60 to 11.30
"Oc1ccc(Nc2nc3cccc(N[C@H]4CC[C@@H](O)CC4)n3n2)cn1 [Example 371, cis-5-(5-(4-hydroxycyclohexylamino)-[1,2,4]triazolo[1,5-a]pyridin-2-ylamino)pyridin-2-ol]",–,–,5.00 to 6.00
"OC1CCC(Nc2cccc3nc(Nc4ccccc4)nn23)CC1 (stereo in doubt) [Example 470, trans-4-(2-(phenylamino)-[1,2,4]triazolo[1,5-a]pyridin-5-ylamino)cyclohexanol]",–,5.00 to 6.00,–
"NCCCCc1cccc2nc(Nc3ccccc3)nn12 [Example 505, 5-(4-aminobutyl)-N-phenyl-[1,2,4]triazolo[1,5-a]pyridin-2-amine]",–,6.00 to 6.30,–
"OC[C@@H]1CCCN1Cc1cccc2nc(Nc3ccc(C(F)(F)F)cc3)nn12 [Example 271, (S)-(1-((2-(4-(trifluoromethyl)phenylamino)-[1,2,4]triazolo[1,5-a]pyridin-5-yl)methyl)pyrrolidin-2-yl)methanol]",–,–,5.00 to 6.00
"NC(=O)c1ccc(Nc2nc3cccc(N[C@H]4CC[C@@H](O)CC4)n3n2)cn1 [Example 370, cis-5-(5-(4-hydroxycyclohexylamino)-[1,2,4]triazolo[1,5-a]pyridin-2-ylamino)picolinamide]",–,–,6.00 to 6.30
"O=C1NCCc2cc(Nc3nc4cccc(N[C@H]5CC[C@@H](O)CC5)n4n3)ccc21 [Example 203, cis-6-(5-(4-hydroxycyclohexylamino)-[1,2,4]triazolo[1,5-a]pyridin-2-ylamino)-3,4-dihydroisoquinolin-1(2H)-one]",–,–,6.60 to 11.30
"N[C@H]1CC[C@H](Oc2cccc3nc(Nc4ccc(C(F)(F)F)cc4)nn23)CC1 (stereo in doubt) [Example 422, trans-5-(4-aminocyclohexyloxy)-N-(4-(trifluoromethyl)phenyl)-[1,2,4]triazolo[1,5-a]pyridin-2-amine]",–,6.60 to 11.30,–
"CN(c1cccc2nc(Nc3ccc4c(c3)NC(=O)C4(C)C)nn12)C1CCOCC1 [Example 158, 3,3-dimethyl-6-(5-(methyl(tetrahydro-2H-pyran-4-yl)amino)-[1,2,4]triazolo[1,5-a]pyridin-2-ylamino)indolin-2-one]",6.60 to 11.30,–,–

# The remaining lines, values ahead:
pIC50 [1],pIC50 [2],pIC50 [3],SMILES
6.30 to 6.60,–,–,"CC1(C)NC(=O)c2cc(Nc3nc4cccc(N[C@H]5CC[C@@H](O)CC5)n4n3)ccc21 [compound 120, cis-6-(5-(4-hydroxycyclohexylamino)-[1,2,4]triazolo[1,5-a]pyridin-2-ylamino)-3,3-dimethylisoindolin-1-one]"
6.60 to 11.30,–,–,Nc1noc2ccc(Nc3nc4cccc(-c5ccccc5)n4n3)cc12 [compound 42]
6.60 to 11.30,–,–,O[C@H]1CC[C@@H](Nc2cccc3nc(Nc4cnc5cn[nH]c5c4)nn23)CC1 [compound 107]
6.60 to 11.30,–,–,"O=C(NC1CCNCC1)c1ccc(Nc2nc3cccc(-c4ccccc4)n3n2)cc1 [compound 77, 4-(5-phenyl-[1,2,4]triazolo[1,5-a]pyridin-2-ylamino)-N-(piperidin-4-yl)benzamide]"
–,6.00 to 6.30,–,"NC(=O)c1ccc(Nc2nc3cccc(NC4CCCCC4)n3n2)cc1 [Example 560, 4-(5-(cyclohexylamino)-[1,2,4]triazolo[1,5-a]pyridin-2-ylamino)benzamide]"
6.60 to 11.30,–,–,Nc1n[nH]c2cc(Nc3nc4cccc(-c5ccccc5)n4n3)ccc12 [compound 57]
6.60 to 11.30,–,–,"O=C(O)c1ccc(Nc2nc3cccc(-c4cccc(O)c4)n3n2)cc1 [compound 25, 4-(5-(3-hydroxyphenyl)-[1,2,4]triazolo[1,5-a]pyridin-2-ylamino)benzoic acid]"
6.00 to 6.30,–,–,"Fc1cccc(-c2cccc3nc(Nc4ccccc4)nn23)c1 [compound 81, 5-(3-fluorophenyl)-N-phenyl-[1,2,4]triazolo[1,5-a]pyridin-2-amine]"
–,6.60 to 11.30,–,Cc1cc(Nc2nc3cccc(N[C@H]4CC[C@@H](O)CC4)n3n2)cc2c1CC(=O)N2C [Example 556]
6.60 to 11.30,–,–,"OCc1nc2ccc(Nc3nc4cccc(-c5cccc(F)c5)n4n3)cc2[nH]1 [compound 3, (6-(5-(3-fluorophenyl)-[1,2,4]triazolo[1,5-a]pyridin-2-ylamino)-1H-benzo[d]imidazol-2-yl)methanol]"
–,6.60 to 11.30,–,Cc1cccc2nc(Nc3ccc4c(c3)NC(=O)C4(C)C)nn12 [Example 564]
6.60 to 11.30,–,–,"Oc1cccc(-c2cccc3nc(Nc4ccc5cnoc5c4)nn23)c1 [compound 14, 3-(2-(benzo[d]isoxazol-6-ylamino)-[1,2,4]triazolo[1,5-a]pyridin-5-yl)phenol]"
6.60 to 11.30,–,–,"CNC(=O)c1ccc(Nc2nc3cccc(-c4cccc(CCCN)c4)n3n2)cc1 [compound 8, 4-(5-(3-(3-aminopropyl)phenyl)-[1,2,4]triazolo[1,5-a]pyridin-2-ylamino)-N-methylbenzamide]"
6.60 to 11.30,–,–,"COCc1n[nH]c2cc(Nc3nc4cccc(CC5CCOCC5)n4n3)ccc12 [compound 104, N-(3-(methoxymethyl)-1H-indazol-6-yl)-5-((tetrahydro-2H-pyran-4-yl)methyl)-[1,2,4]triazolo[1,5-a]pyridin-2-amine]"
6.60 to 11.30,–,–,"CNC(=O)c1ccc(Nc2nc3cccc(-c4ccc(-c5c[nH]cn5)cc4)n3n2)cc1 [compound 9, 4-(5-(4-(1H-imidazol-4-yl)phenyl)-[1,2,4]triazolo[1,5-a]pyridin-2-ylamino)-N-methylbenzamide]"
